What was measured:
[1] = test system: Bacillus subtilis ATCC 10707; test: Minimum inhibitory concentration (Table I); type: cell-based
Text: (§1) Comparative data similarly obtained by using mitomycin A, mitomycin C and 7-N-phenyl mitomycin C are also shown in this table

[2] = test system: Klebsiella pneumoniae ATCC 10031; test: Minimum inhibitory concentration (Table I); type: cell-based
Text: as §1

[3] = test system: Shigella sonnei ATCC 9290; test: Minimum inhibitory concentration (Table I); type: cell-based
Text: as §1

[4] = test system: Staphylococcus aureus ATCC 6538P; test: Minimum inhibitory concentration (Table I); type: cell-based
Text: as §1

[5] = Acute toxicity determination, intraperitoneal; design: species or system Mice (dd-strain); conditions: mouse, in vivo, ip; dd mice, single i.p., 14 days, Behrens-Karber
Description: (§2) The following treatment was performed to make these compounds water-soluble for use in the experiments. A test compound was dissolved in ethanol (about 1000 times by weight) HCO-60, a commercially available surfactant was added in amounts of about 3 times by weight. The mixture was well stirred to dissolve the HCO-60. Ethanol was removed from the solution under reduced pressure by using a rotary evaporator. After this, a test solution was prepared by adding a suitable amount of a physiological saline solution with agitation.
Mice [dd-strain; weight 20±1 g; each group consisted of 5 mice] were used for this experiment. An individual test solution was administered to each mouse by intraperitoneal injection. The test solutions (each 0.5 ml) were prepared by stepwise dilution.

P-388 cells [6] = test: Antitumor activity, P-388 leukemia intraperitoneally inoculated, compound i.p. (Example II); type: in vivo, CDF1 mice
Description: as §2
Seven-day-old leukemia cells obtained from the ascites of DBA/2 mice inoculated intraperitoneally with 10^6 P-388 cells were used. A cell suspension containing 5×10^6 cells per ml was prepared by using a sterilized physiological saline solution. The test mice (CDF1 mice, 20-25 g) were inoculated with 0.2 ml of the cell suspension containing 1×10^6 cells intraperitoneally. After 24 hours, the mice were divided into groups (each group consisting of 5 mice) and the test solutions were administered intraperitoneally once only. […] In order to evaluate the effects of the test samples, the average survival days were calculated 30 and 60 days after tumor implantation and compared with those of the control group (untreated group). Antitumor activities of the test compounds are indicated by ILS % (increase in life span%) on the basis of the control group.

P-388 cells [7] = test: Antitumor effect, P-388 cells intravenously inoculated, compound i.v. (Example III); type: in vivo, Mice; conditions: 30 days
Description: as §2
Mice were inoculated intravenously with P-388 cells (10^6 /0.2 ml) in a similar manner to that described above in Example II. […] Untreated mice and mice administered with Tween 80 were used for control purpose.

Sarcoma 180 cells = test: Effect on Sarcoma-180, tumor weight ratio (Example IV); type: in vivo, dd-strain mice; design: key: D*: All mice in the group died
Description: as §2
(§3) Sarcoma 180 cells were inoculated intraperitoneally into dd-strain mice. After 7 days following tumor implantation, ascites tumor cells were obtained from the mice. The cells were washed and a tumor cell suspension containing 5×10^7 cells per ml was prepared with physiological saline solution. 0.1 ml of the thus-prepared suspension containing 5×10^6 cells was inoculated into the left inguinal region of each of the test mice (dd-strain; weight 19±1 g; divided into groups, each group consisting of 5 mice). After 24 hours following the inoculation, the test compounds were administered to the mice individually and intraperitoneally. After 4 days following the inoculation, the peripherical blood of the treated mice was obtained by the puncture of the orbital vein. The number of the leucocytes in the peripheral blood was measured by using Toa Microcell Counter CC-108 (a commercial product of Toa Medical Electronics Co., Ltd., Japan). In order to evaluate the antitumor effects, the tumor was removed 7 days after the inoculation and weighed. Its weight was compared with the average weight of the tumors of the control group (untreated) to give the weight ratios (T/C) shown in Table 5.

[8] = Number of leucocytes in peripheral blood of Sarcoma-180 bearing mice (Example IV); type: in vivo, dd-strain mice; design: key: D*: All mice in the group died
Description: as §2, §3

Solubility in water = type: physicochemical
[9] = 5 mg/kg i.p. once, determined after 30 days
[10] = 5 mg/kg i.p. once, determined after 60 days
[11] = 10 mg/kg i.p. once, determined after 30 days
[12] = 10 mg/kg i.p. once, determined after 60 days
[13] = 20 mg/kg i.p. once, determined after 30 days
[14] = 20 mg/kg i.p. once, determined after 60 days
[15] = 30 mg/kg i.p. once, determined after 30 days
[16] = 30 mg/kg i.p. once, determined after 60 days
[17] = 5 mg/kg i.p., tumor weighed 7 days after inoculation
[18] = 10 mg/kg i.p., tumor weighed 7 days after inoculation
[19] = 20 mg/kg i.p., tumor weighed 7 days after inoculation
[20] = 40 mg/kg i.p., tumor weighed 7 days after inoculation
[21] = 5 mg/kg i.p., 4 days after inoculation
[22] = 10 mg/kg i.p., 4 days after inoculation
[23] = 20 mg/kg i.p., 4 days after inoculation
[24] = 40 mg/kg i.p., 4 days after inoculation
[25] = 15 mg/kg i.p. once, determined after 30 days
[26] = 15 mg/kg i.p. once, determined after 60 days

## COC1=C(C)C(=O)C2=C(C1=O)[C@@H](COC(N)=O)[C@@]1(OC)[C@H]3N[C@H]3CN21 [Compound I, mitomycin A]
[1]
  minimum inhibitory concentration: < 0.025
[2]
  minimum inhibitory concentration: < 0.025
[3]
  minimum inhibitory concentration: 0.098
[4]
  minimum inhibitory concentration: < 0.025

## CO[C@@]12[C@H](COC(N)=O)C3=C(C(=O)C(C)=C(Nc4ccc(O)cc4)C3=O)N1C[C@@H]1N[C@@H]12 [Compound IV, 7-N-(p-hydroxyphenyl)-mitomycin C]
[1]
  minimum inhibitory concentration: 0.049
[2]
  minimum inhibitory concentration: 0.391
[3]
  minimum inhibitory concentration: 6.25
[4]
  minimum inhibitory concentration: 0.196
[5]
  LD50 at 336 h: 34 mg/kg
P-388 cells [6]; [9]
  Average survival days: 20.4 ± 5.2 days
  ILS % (increase in life span): 108%
  Number of survivors: 1/5
P-388 cells [6]; [10]
  Average survival days: 20.4 ± 5.2 days
  ILS % (increase in life span): 108%
  Number of survivors: 0/5
P-388 cells [6]; [11]
  Average survival days: 23.0 ± 4.5 days
  ILS % (increase in life span): 135%
  Number of survivors: 1/5
P-388 cells [6]; [12]
  Average survival days: 23.4 ± 5.1 days
  ILS % (increase in life span): 136%
  Number of survivors: 0/5
P-388 cells [6]; [13]
  Average survival days: 28.4 ± 3.2 days
  ILS % (increase in life span): 190%
  Number of survivors: 4/5
P-388 cells [6]; [14]
  Average survival days: 47.6 ± 15.8 days
  ILS % (increase in life span): 386%
  Number of survivors: 3/5
P-388 cells [6]; [15]
  Average survival days: 15.4 ± 0.4 days
  ILS % (increase in life span): 57%
  Number of survivors: 1/5
P-388 cells [6]; [16]
  Average survival days: 21.4 ± 20.7 days
  ILS % (increase in life span): 118%
  Number of survivors: 1/5
P-388 cells [7]; 5 mg/kg i.v. once
  Average survival days: 11.4 ± 1.4 days
  ILS %: 33%
P-388 cells [7]; 10 mg/kg i.v. once
  Average survival days: 14.0 ± 0 days
  ILS %: 63%
P-388 cells [7]; 15 mg/kg i.v. once
  Average survival days: 16.6 ± 1.5 days
  ILS %: 93%
P-388 cells [7]; 20 mg/kg i.v. once
  Average survival days: 17.6 ± 4.1 days
  ILS %: 105%
P-388 cells [7]; 30 mg/kg i.v. once
  Average survival days: 7.6 ± 0.8 days
  ILS %: -12%
Sarcoma 180 cells; [17]
  T/C (tumor weight ratio): 0.83
Sarcoma 180 cells; [18]
  T/C (tumor weight ratio): 0.66
Sarcoma 180 cells; [19]
  T/C (tumor weight ratio): 0.46
Sarcoma 180 cells; [20]
  T/C (tumor weight ratio): 0.27
[8]; [21]
  Average number of leucocytes: 63.2 ± 10.2 × 10^2 /mm^3
[8]; [22]
  Average number of leucocytes: 64.0 ± 24.6 × 10^2 /mm^3
[8]; [23]
  Average number of leucocytes: 39.0 ± 5.6 × 10^2 /mm^3
[8]; [24]
  Average number of leucocytes: 40.0 ± 15.3 × 10^2 /mm^3
Solubility in water
  solubility in water: low solubility in water

## CO[C@@]12[C@H](COC(N)=O)C3=C(C(=O)C(C)=C(Nc4ccccc4)C3=O)N1C[C@@H]1N[C@@H]12 [III, 7-N-phenyl mitomycin C, reference compound]
[1]
  minimum inhibitory concentration: < 0.025
[2]
  minimum inhibitory concentration: 0.098
[3]
  minimum inhibitory concentration: 1.563
[4]
  minimum inhibitory concentration: < 0.025
P-388 cells [6]; [9]
  Average survival days: 17.84 ± 1.2 days
  ILS % (increase in life span): 82%
  Number of survivors: 0/5
P-388 cells [6]; [10]
  Average survival days: 17.8 ± 1.2 days
  ILS % (increase in life span): 82%
  Number of survivors: 0/5
P-388 cells [6]; [11]
  Average survival days: 21.8 ± 4.3 days
  ILS % (increase in life span): 122%
  Number of survivors: 1/5
P-388 cells [6]; [12]
  Average survival days: 22.04 ± 4.6 days
  ILS % (increase in life span): 124%
  Number of survivors: 0/5
P-388 cells [6]; [25]
  Average survival days: 21.2 ± 2.8 days
  ILS % (increase in life span): 116%
  Number of survivors: 0/5
P-388 cells [6]; [26]
  Average survival days: 21.2 ± 2.8 days
  ILS % (increase in life span): 116%
  Number of survivors: 0/5
P-388 cells [6]; [13]
  Average survival days: 21.6 ± 4.4 days
  ILS % (increase in life span): 120%
  Number of survivors: 1/5
P-388 cells [6]; [14]
  Average survival days: 21.8 ± 4.8 days
  ILS % (increase in life span): 122%
  Number of survivors: 0/5
P-388 cells [7]; 5 mg/kg i.v. once
  Average survival days: 11.4 ± 1.4 days
  ILS %: 33%
P-388 cells [7]; 10 mg/kg i.v. once
  Average survival days: 13.6 ± 1.4 days
  ILS %: 54%
P-388 cells [7]; 15 mg/kg i.v. once
  Average survival days: 15.8 ± 1.5 days
  ILS %: 84%
P-388 cells [7]; 20 mg/kg i.v. once
  Average survival days: 18.0 ± 1.7 days
  ILS %: 109%
P-388 cells [7]; 30 mg/kg i.v. once
  Average survival days: 10.0 ± 2.3 days
  ILS %: 16%
Sarcoma 180 cells; [17]
  T/C (tumor weight ratio): 0.84
Sarcoma 180 cells; [18]
  T/C (tumor weight ratio): 0.59
Sarcoma 180 cells; [19]
  T/C (tumor weight ratio): 0.21
Sarcoma 180 cells; 40 mg/kg i.p., death symbol in place of T/C
  T/C (tumor weight ratio): D*
[8]; [21]
  Average number of leucocytes: 81.4 ± 21.2 × 10^2 /mm^3
[8]; [22]
  Average number of leucocytes: 60.8 ± 18.7 × 10^2 /mm^3
[8]; [23]
  Average number of leucocytes: 31.8 ± 11.9 × 10^2 /mm^3
[8]; 40 mg/kg i.p., death symbol in place of count
  Average number of leucocytes: D*
Solubility in water
  solubility in water: low solubility in water

## CO[C@@]12[C@H](COC(N)=O)C3=C(C(=O)C(C)=C(Nc4ccc(N)cc4)C3=O)N1C[C@@H]1N[C@@H]12 [V, 7-N-(p-aminophenyl)-mitomycin C]
[1]
  minimum inhibitory concentration: < 0.025
[2]
  minimum inhibitory concentration: 0.049
[3]
  minimum inhibitory concentration: 3.125
[4]
  minimum inhibitory concentration: < 0.025
[5]
  LD50 at 336 h: 18 mg/kg
P-388 cells [6]; [9]
  Average survival days: 20.0 ± 3.0 days
  ILS % (increase in life span): 104%
  Number of survivors: 0/5
P-388 cells [6]; [10]
  Average survival days: 20.0 ± 3.0 days
  ILS % (increase in life span): 104%
  Number of survivors: 0/5
P-388 cells [6]; [11]
  Average survival days: 24.6 ± 2.9 days
  ILS % (increase in life span): 151%
  Number of survivors: 1/5
P-388 cells [6]; [12]
  Average survival days: 26.4 ± 6.4 days
  ILS % (increase in life span): 169%
  Number of survivors: 0/5
P-388 cells [6]; [25]
  Average survival days: 21.6 ± 6.4 days
  ILS % (increase in life span): 120%
  Number of survivors: 1/5
P-388 cells [6]; [26]
  Average survival days: 21.8 ± 6.7 days
  ILS % (increase in life span): 122%
  Number of survivors: 0/5
P-388 cells [6]; [13]
  Average survival days: 18.4 ± 6.1 days
  ILS % (increase in life span): 88%
  Number of survivors: 1/5
P-388 cells [6]; [14]
  Average survival days: 24.4 ± 17.9 days
  ILS % (increase in life span): 149%
  Number of survivors: 1/5
P-388 cells [7]; 5 mg/kg i.v. once
  Average survival days: 14.0 ± 0 days
  ILS %: 63%
P-388 cells [7]; 10 mg/kg i.v. once
  Average survival days: 17.8 ± 1.9 days
  ILS %: 107%
P-388 cells [7]; 15 mg/kg i.v. once
  Average survival days: 23.0 ± 1.7 days
  ILS %: 167%
P-388 cells [7]; 20 mg/kg i.v. once
  Average survival days: 15.8 ± 5.4 days
  ILS %: 84%
P-388 cells [7]; 30 mg/kg i.v. once
  Average survival days: 8.4 ± 1.0 days
  ILS %: -2%
Sarcoma 180 cells; [17]
  T/C (tumor weight ratio): 0.71
Sarcoma 180 cells; [18]
  T/C (tumor weight ratio): 0.37
Sarcoma 180 cells; [19]
  T/C (tumor weight ratio): 0.24
Sarcoma 180 cells; [20]
  T/C (tumor weight ratio): 0.09
[8]; [21]
  Average number of leucocytes: 58.2 ± 17.1 × 10^2 /mm^3
[8]; [22]
  Average number of leucocytes: 34.2 ± 11.2 × 10^2 /mm^3
[8]; [23]
  Average number of leucocytes: 24.0 ± 10.2 × 10^2 /mm^3
[8]; [24]
  Average number of leucocytes: 13.6 ± 4.6 × 10^2 /mm^3
Solubility in water
  solubility in water: low solubility in water

Source: patent US4231936A, “Mitomycin C derivatives” (priority 1977, dated 1980)
